Experimental data: paper PMC3445516 (PLoS ONE, 2012)
Like-named read-outs stand apart in the source and are kept apart here.

How the values were obtained:
Assay in all cases: Ambit kinase profiling, competition binding
GSK3A = target: T1, GSK3A (Homo sapiens, UniProt P49840)
T1 construct: purchased Ambit Biosciences (KINOMEscan)
Procedure: (§1) Also included in the kinase profile are four isoforms of PKC (δ, ε, η, θ) and eight isoforms of CAMKs (CAMKIα, δ, γ; CAMKIIα, β, δ, γ; CAMK4).
(§2) The global kinase profiling experiment was performed by Ambit Biosciences.

PKAC-beta = target: T2, PKAC-beta (Homo sapiens, UniProt P22694)
T2 construct: purchased Ambit Biosciences (KINOMEscan)
Procedure: as §1, §2

SYK = target: T3, SYK (Homo sapiens, UniProt P43405); conditions: for % Competition: 10 µM
T3 construct: purchased Ambit Biosciences (KINOMEscan)
Procedure: as §1, §2

IRAK3 = target: T4, IRAK3 (Homo sapiens, UniProt Q9Y616)
T4 construct: purchased Ambit Biosciences (KINOMEscan)
T4 sequence (Q9Y616 1-596): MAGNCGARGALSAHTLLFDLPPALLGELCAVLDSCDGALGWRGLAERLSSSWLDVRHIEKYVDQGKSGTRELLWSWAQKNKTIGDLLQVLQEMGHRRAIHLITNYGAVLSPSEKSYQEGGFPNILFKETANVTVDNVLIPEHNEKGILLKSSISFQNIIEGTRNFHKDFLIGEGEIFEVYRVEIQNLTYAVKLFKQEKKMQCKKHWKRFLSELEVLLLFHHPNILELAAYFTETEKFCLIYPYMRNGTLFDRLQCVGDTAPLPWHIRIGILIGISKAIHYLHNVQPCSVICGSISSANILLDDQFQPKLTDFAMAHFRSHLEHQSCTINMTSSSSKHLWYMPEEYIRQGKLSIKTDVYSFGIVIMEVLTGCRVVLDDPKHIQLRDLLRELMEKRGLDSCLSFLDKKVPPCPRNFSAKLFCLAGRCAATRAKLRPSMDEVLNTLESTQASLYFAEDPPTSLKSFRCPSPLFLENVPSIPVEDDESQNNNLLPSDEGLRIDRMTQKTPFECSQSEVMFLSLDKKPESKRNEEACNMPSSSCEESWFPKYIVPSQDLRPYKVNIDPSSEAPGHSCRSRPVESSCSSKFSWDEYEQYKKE
Procedure: as §1, §2

TNIK = target: T5, TNIK (Homo sapiens, UniProt Q9UKE5)
T5 construct: purchased Ambit Biosciences (KINOMEscan)
Procedure: as §1, §2

LATS2 = target: T6, LATS2 (Homo sapiens, UniProt Q9NRM7); conditions: for % Competition: 10 µM
T6 construct: purchased Ambit Biosciences (KINOMEscan)
T6 sequence (Q9NRM7 1-1088): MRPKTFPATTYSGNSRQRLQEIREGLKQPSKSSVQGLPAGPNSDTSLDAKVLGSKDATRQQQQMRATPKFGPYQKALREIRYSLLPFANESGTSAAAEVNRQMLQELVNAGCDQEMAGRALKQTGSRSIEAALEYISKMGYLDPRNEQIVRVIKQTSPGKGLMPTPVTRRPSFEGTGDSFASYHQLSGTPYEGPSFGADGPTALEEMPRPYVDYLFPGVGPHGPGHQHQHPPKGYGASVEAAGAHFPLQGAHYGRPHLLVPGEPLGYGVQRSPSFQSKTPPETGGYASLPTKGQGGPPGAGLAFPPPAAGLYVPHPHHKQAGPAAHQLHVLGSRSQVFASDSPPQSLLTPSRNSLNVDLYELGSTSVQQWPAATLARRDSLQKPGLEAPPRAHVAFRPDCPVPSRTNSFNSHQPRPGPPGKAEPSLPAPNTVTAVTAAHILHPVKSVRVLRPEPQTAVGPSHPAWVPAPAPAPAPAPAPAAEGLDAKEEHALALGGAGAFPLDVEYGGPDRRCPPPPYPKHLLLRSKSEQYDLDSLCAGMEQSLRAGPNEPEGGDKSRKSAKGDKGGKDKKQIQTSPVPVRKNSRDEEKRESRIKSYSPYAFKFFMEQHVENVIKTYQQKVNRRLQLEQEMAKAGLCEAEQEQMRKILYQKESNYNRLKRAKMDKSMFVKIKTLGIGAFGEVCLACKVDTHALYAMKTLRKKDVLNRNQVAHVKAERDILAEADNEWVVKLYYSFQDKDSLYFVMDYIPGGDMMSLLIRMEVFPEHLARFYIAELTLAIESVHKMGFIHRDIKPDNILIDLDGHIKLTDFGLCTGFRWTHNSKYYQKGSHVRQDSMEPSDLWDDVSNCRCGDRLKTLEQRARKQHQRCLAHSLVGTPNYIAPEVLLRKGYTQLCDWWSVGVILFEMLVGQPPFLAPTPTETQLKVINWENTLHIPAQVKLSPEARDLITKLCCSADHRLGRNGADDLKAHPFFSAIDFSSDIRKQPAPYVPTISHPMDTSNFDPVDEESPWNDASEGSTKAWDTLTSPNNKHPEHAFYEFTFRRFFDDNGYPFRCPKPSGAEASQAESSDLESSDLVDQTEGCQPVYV
Procedure: as §1, §2

ERBB4 = target: T7, ERBB4 (Homo sapiens, UniProt Q15303)
T7 construct: purchased Ambit Biosciences (KINOMEscan)
Procedure: as §1, §2

DMPK2 = target: T8, DMPK2 (Homo sapiens, UniProt Q6DT37)
T8 construct: purchased Ambit Biosciences (KINOMEscan)
Procedure: as §1, §2

CAMKIIα = target: T9, CAMKIIα (Homo sapiens, UniProt Q9UQM7); conditions: for competition: CAMKIIα, 10 µM
T9 construct: purchased Ambit Biosciences (KINOMEscan)
Procedure: as §1, §2

ACVR2B = target: T10, ACVR2B (Homo sapiens, UniProt Q13705); conditions: for % Competition: 10 µM
T10 construct: purchased Ambit Biosciences (KINOMEscan)
Procedure: as §1, §2

[1] = target: T11, JAK1 (JH2 domain-pseudokinase) (Homo sapiens, UniProt P23458); conditions: for % Competition: JAK1 (JH2 domain-pseudokinase), 10 µM
T11 construct: JAK1 (JH2 domain-pseudokinase); purchased Ambit Biosciences (KINOMEscan)
Procedure: as §1, §2

T1 sequence (P49840 whole entry): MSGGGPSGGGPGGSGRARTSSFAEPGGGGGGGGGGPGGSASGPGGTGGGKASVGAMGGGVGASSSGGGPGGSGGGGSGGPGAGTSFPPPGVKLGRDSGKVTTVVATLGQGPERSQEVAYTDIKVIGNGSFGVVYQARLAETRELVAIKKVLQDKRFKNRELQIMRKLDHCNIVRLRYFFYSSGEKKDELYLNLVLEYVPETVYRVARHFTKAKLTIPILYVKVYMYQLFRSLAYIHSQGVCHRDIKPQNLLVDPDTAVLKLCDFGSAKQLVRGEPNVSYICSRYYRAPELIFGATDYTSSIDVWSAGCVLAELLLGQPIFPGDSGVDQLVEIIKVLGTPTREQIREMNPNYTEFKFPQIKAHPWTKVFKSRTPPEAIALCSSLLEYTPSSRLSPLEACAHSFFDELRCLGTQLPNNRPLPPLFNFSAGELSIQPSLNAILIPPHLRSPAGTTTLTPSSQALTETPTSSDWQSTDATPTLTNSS
T10 sequence (Q13705 19-512): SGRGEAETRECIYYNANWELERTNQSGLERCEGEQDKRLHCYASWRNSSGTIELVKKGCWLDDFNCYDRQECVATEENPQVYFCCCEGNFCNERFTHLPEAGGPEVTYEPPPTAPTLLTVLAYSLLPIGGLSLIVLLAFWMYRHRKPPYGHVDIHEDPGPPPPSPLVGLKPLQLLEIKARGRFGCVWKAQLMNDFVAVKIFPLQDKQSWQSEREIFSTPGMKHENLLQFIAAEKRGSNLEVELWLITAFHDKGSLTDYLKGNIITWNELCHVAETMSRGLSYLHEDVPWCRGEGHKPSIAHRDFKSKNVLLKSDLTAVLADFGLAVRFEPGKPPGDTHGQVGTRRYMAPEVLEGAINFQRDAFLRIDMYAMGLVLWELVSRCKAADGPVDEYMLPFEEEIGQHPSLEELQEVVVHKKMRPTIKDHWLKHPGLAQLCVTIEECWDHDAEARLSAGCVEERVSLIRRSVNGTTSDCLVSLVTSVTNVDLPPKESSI
T8 sequence (Q6DT37 whole entry): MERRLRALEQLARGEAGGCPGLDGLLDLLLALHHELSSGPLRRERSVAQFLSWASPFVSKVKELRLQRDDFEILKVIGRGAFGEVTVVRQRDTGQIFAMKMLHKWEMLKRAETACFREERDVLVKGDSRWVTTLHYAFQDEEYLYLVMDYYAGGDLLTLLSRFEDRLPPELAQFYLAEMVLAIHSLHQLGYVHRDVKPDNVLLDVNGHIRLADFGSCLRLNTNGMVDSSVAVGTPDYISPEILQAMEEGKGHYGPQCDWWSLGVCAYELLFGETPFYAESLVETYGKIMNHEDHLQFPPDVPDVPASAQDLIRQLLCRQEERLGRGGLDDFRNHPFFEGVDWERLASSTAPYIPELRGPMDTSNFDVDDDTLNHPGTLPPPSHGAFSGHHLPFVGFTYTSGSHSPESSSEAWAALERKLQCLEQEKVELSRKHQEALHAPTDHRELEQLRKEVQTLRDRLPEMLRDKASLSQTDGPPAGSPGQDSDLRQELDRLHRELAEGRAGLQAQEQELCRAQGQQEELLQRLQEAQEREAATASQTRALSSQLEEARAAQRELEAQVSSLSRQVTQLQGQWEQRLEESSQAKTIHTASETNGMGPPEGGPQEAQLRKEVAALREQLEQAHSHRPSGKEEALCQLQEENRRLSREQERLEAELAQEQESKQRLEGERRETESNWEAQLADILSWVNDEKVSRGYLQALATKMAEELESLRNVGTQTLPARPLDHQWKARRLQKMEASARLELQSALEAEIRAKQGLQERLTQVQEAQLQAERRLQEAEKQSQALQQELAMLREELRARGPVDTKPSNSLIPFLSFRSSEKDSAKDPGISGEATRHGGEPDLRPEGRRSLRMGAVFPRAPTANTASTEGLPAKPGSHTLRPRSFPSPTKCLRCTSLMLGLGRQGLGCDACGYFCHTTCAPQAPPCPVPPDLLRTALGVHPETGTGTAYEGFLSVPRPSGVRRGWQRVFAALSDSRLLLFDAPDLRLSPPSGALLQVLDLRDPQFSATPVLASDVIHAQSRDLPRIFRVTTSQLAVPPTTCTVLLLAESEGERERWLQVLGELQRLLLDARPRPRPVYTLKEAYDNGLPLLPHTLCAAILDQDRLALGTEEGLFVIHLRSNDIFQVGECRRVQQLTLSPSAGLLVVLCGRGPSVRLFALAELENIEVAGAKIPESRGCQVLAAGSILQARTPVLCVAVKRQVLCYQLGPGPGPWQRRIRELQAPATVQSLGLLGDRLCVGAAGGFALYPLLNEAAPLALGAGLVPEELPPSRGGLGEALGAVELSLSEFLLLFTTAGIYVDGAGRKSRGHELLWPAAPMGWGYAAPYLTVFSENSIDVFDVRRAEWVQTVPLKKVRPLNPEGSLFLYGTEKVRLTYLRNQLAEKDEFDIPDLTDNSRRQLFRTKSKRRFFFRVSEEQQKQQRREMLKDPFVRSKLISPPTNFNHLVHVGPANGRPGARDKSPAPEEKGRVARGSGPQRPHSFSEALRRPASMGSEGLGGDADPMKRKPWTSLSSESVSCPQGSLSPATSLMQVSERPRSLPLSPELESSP
T9 sequence (Q9UQM7 whole entry): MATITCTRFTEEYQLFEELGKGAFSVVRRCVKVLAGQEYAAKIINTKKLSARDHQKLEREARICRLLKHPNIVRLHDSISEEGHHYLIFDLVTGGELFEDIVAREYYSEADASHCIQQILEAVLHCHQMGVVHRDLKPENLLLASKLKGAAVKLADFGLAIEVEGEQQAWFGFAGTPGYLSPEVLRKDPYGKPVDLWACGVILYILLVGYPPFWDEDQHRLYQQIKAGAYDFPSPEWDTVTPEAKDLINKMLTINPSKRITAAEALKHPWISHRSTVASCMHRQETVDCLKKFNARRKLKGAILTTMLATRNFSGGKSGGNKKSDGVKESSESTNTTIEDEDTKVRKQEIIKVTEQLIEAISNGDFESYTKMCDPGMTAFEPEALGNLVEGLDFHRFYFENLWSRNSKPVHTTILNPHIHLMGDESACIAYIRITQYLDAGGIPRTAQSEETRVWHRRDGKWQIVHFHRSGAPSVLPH
T7 sequence (Q15303 26-1308): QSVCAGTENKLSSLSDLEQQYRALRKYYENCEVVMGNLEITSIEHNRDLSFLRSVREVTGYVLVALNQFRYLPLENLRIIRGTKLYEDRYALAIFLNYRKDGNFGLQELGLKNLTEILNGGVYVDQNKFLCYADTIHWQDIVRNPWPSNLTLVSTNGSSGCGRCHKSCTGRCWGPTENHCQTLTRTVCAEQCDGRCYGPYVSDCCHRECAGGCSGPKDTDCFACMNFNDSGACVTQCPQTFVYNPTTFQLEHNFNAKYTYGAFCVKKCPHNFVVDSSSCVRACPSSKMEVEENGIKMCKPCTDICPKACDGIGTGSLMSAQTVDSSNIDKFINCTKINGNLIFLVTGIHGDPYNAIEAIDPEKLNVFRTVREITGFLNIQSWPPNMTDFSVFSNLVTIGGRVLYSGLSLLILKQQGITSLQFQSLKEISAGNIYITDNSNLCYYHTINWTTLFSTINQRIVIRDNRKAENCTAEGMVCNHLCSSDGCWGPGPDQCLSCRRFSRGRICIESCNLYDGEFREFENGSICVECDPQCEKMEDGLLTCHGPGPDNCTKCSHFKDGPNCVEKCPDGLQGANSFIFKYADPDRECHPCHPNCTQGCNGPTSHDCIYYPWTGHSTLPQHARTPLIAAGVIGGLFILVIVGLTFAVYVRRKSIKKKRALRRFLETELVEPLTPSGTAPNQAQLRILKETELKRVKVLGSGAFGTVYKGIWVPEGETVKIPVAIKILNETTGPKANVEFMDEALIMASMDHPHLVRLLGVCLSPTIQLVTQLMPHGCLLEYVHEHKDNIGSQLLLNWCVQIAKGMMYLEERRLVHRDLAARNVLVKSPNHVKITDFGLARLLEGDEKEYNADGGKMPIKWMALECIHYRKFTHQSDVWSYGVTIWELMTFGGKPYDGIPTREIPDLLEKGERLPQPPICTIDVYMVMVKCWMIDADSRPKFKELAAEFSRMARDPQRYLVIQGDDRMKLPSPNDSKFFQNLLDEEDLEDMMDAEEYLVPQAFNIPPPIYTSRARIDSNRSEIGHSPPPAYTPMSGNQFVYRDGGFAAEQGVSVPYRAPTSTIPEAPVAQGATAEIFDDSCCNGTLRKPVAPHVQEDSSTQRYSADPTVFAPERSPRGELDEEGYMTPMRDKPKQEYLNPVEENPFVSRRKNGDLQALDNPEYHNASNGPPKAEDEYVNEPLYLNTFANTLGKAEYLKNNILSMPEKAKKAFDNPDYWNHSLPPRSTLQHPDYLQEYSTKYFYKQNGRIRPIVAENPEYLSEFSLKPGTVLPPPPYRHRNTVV
T11 sequence (P23458 583-855 limits assumed): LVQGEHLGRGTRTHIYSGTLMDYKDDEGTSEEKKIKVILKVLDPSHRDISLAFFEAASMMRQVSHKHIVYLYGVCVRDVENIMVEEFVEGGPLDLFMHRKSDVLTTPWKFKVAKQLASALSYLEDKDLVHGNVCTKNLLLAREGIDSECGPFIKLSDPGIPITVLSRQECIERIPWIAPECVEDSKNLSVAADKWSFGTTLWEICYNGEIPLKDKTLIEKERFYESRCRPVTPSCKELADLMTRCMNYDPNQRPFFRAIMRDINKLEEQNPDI

Fc1ccc(-c2c(-c3ccncc3)[nH]c3nccnc23)cc1 [Compound 122]
inhibition at 10 µM (GSK3A; GSK3A, 10 µM, read-out: % Competition): 98%
inhibition at 10 µM (PKAC-beta; PKAC-beta, 10 µM, read-out: % Competition): 67%
% Competition (SYK): 72%
inhibition at 10 µM (IRAK3; IRAK3, 10 µM, read-out: % Competition): 75%
inhibition at 10 µM (TNIK; TNIK, 10 µM, read-out: % Competition): 96%
% Competition (LATS2): 82%
inhibition at 10 µM (ERBB4; ERBB4, 10 µM, read-out: % Competition): 80%
inhibition at 10 µM (DMPK2; DMPK2, 10 µM, read-out: % Competition): 100%
competition (CAMKIIα): < 50%
% Competition (ACVR2B): 92%
% Competition [1]: 99%

CC(O)CNc1cc(-c2[nH]c3cccnc3c2-c2ccc(F)cc2)ccn1 (stereo not drawn) [Compound 140]
inhibition at 10 µM (GSK3A; read-out: % Competition): < 50%
inhibition at 10 µM (PKAC-beta; read-out: % Competition): < 50%
% Competition (SYK): <50%
inhibition at 10 µM (IRAK3; read-out: % Competition): < 50%
inhibition at 10 µM (TNIK; read-out: % Competition): < 50%
% Competition (LATS2): <50%
inhibition at 10 µM (ERBB4; read-out: % Competition): < 50%
inhibition at 10 µM (DMPK2; read-out: % Competition): 74%
competition (CAMKIIα): < 50%
% Competition (ACVR2B): <50%
% Competition [1]: 90%

Fc1ccc(-c2c(-c3ccncc3)[nH]c3nccnc23)cc1 [RO1155697-000-005]
inhibition at 10 µM (GSK3A; GSK3A, compound concentration 10 uM, read-out: Percent Competition): 98%
inhibition at 10 µM (PKAC-beta; PKAC-beta, compound concentration 10 uM, read-out: Percent Competition): 67%
Percent Competition (SYK; compound concentration 10 uM): 72%
inhibition at 10 µM (IRAK3; IRAK3, compound concentration 10 uM, read-out: Percent Competition): 75%
inhibition at 10 µM (TNIK; TNIK, compound concentration 10 uM, read-out: Percent Competition): 96%
Percent Competition (LATS2; compound concentration 10 uM): 82%
inhibition at 10 µM (ERBB4; ERBB4, compound concentration 10 uM, read-out: Percent Competition): 80%
inhibition at 10 µM (DMPK2; DMPK2, compound concentration 10 uM, read-out: Percent Competition): 100%
inhibition at 10 µM (CAMKIIα; CAMK2A, compound concentration 10 uM, read-out: Percent Competition): < 50%
Percent Competition (ACVR2B; compound concentration 10 uM): 92%
Percent Competition ([1]; JAK1(JH2domain-pseudokinase), compound concentration 10 uM): 99%
